Values of other authors, collected in patent publication US20220175695A1, “FORTIFICANT COMPOSITION” (Conopco, Inc., d/b/a UNILEVER, priority 2019, published 2022).

Details: without the composition

## Vitamin A
  time Vitamin A is stable in the presence of water: < 4 h
